From patent US20140255476A1, “COMPOSITIONS, DEVICES, AND METHODS FOR TREATING INFECTIONS” (University of Washington through its Center for …, priority 2011, published 2014)

Legend:
[1] = decomposition of calcium hypochlorite under ambient light; format: physicochemical; details: 200 mg/ml, 37° C., without stabilization in alginate-calcium hydrogel
Experimental: In one embodiment, the interactions of calcium hypochlorite and alginate control the release of chlorine over time, which allows prolonged and continuous exposure. Without stabilization of calcium hypochlorite in alginate-calcium hydrogel, calcium hypochlorite at a concentration of 200 mg/ml is decomposed under ambient light within 30 min at 37° C. In a composition containing 1% alginate tested at room temperature (without exposing to light), about 40-50% of chlorine was released over 2 hr test period for all calcium hypochlorite concentrations tested (FIG. 2). […] It is understood that the physical structure of the gel can take the form of particles, sheets, or appropriate structure to optimize the surface suitable for release of the active hypohalite form.

onychomycosis = details: topical formulations; do not penetrate the nail; cited from earlier work
[2] = system: XL-1 antibiotic resistant bacteria; details: 30 and 60 mg/ml, 16 hr and 40 hr
Experimental: FIGS. 11A-11D are images of agar plates seeded with XL-1 antibiotic resistant bacteria comparing the effectiveness of sodium hypochlorite (11A and 11C) and calcium hypochlorite (11B and 11D) at 16 hr (11A and 11B) and 40 hr (11C and 11D). Sodium hypochlorite (11A and 11C): 0, water; 1 30 mg/ml with alginate; 2, 60 mg/ml with alginate; 3, 60 mg/ml without alginate; 4, 30 mg/ml without alginate. Calcium hypochlorite (11B and 11D): 0, water; 1 25 mg/ml with alginate; 2, 50 mg/ml with alginate; 3, 50 mg/ml without alginate; 4, 25 mg/ml without alginate.

Compound	effectiveness for onychomycosis (onychomycosis)	also measured
[Ca+2].[O-]Cl.[O-]Cl [calcium hypochlorite]	–	time to decomposition [1]: ≤ 30 min
Clc1ccccc1C(c1ccccc1)(c1ccccc1)n1ccnc1 [clotrimazole]	totally ineffective	–
CN(C/C=C/C#CC(C)(C)C)Cc1cccc2ccccc12 [terbinafine]	totally ineffective	–
sodium chlorite	–	effectiveness with vs without alginate [2]: not affected by the presence of alginate
